Molecular target: T1, human TLR7 (Homo sapiens, UniProt Q9NYK1)
T1 construct: host or cells: HEK293 (HEK-Blue hTLR7)
T1 sequence (Q9NYK1 27-1049): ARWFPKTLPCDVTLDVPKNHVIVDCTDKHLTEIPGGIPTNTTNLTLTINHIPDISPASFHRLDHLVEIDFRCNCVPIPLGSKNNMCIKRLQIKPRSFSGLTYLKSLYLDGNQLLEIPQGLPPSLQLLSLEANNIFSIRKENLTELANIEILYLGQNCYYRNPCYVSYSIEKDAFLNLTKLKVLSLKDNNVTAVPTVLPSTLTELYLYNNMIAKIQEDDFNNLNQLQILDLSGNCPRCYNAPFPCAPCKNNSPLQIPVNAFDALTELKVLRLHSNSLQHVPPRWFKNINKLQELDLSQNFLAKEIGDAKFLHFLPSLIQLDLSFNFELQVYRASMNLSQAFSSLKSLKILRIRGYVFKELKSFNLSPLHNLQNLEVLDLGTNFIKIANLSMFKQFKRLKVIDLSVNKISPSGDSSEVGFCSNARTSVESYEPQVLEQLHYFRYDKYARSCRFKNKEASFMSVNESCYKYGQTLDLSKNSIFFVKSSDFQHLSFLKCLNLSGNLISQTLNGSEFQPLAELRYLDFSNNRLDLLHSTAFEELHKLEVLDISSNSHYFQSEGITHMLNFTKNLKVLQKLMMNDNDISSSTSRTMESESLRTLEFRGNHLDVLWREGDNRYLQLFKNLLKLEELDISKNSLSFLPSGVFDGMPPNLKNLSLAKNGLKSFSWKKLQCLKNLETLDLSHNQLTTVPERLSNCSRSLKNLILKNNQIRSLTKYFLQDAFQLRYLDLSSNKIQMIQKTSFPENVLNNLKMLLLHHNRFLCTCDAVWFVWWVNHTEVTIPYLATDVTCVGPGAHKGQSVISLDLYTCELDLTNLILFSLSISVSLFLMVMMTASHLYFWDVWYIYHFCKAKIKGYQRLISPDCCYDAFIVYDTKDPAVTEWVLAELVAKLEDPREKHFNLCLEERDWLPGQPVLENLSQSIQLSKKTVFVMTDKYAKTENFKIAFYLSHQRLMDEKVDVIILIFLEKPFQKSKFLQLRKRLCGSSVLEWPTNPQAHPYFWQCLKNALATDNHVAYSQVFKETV
Assay: HEK293-Blue-hTLR-7 cells assay (SEAP reporter, R848 stimulation)
Format: cell-based
Details: HEK293-Blue-hTLR7 cells, R848, 20 hrs
Procedure: The following tests were carried out in order to determine the activity of the compounds of formula (I) in HEK293-Blue-hTLR-7/8/9 cells assay.
HEK293-Blue-hTLR-7 Cells Assay:
A stable HEK293-Blue-hTLR-7 cell line was purchased from InvivoGen (Cat. #: hkb-htlr7, San Diego, Calif. USA). These cells were originally designed for studying the stimulation of human TLR7 by monitoring the activation of NF-κB. A SEAP (secreted embryonic alkaline phosphatase) reporter gene was placed under the control of the IFN-β minimal promoter fused to five NF-κB and AP-1-binding sites. The SEAP was induced by activating NF-κB and AP-1 via stimulating HEK-Blue hTLR7 cells with TLR7 ligands. Therefore the reporter expression was declined by TLR7 antagonist under the stimulation of a ligand, such as R848 (Resiquimod), for incubation of 20 hrs. The cell culture supernatant SEAP reporter activity was determined using QUANTI-Blue™ kit (Cat. #: rep-qbl, Invivogen, San Diego, Calif., USA) at a wavelength of 640 nm, a detection medium that turns purple or blue in the presence of alkaline phosphatase.
HEK293-Blue-hTLR7 cells were incubated at a density of 250,000˜450,000 cells/mL in a volume of 170 μL in a 96-well plate in Dulbecco's Modified Eagle's medium (DMEM) containing 4.5 g/L glucose, 50 U/mL penicillin, […], […], 2 mM L-glutamine, 10% (v/v) heat-inactivated fetal bovine serum with addition of 20 μL A test compound in a serial dilution in the presence of final DMSO at 1% and 10 μL of 20 uM R848 in above DMEM, perform incubation under 37° C. in a CO2 incubator for 20 hrs. Then 20 μL of the supernatant from each well was incubated with 180 μQuanti-blue substrate solution at 37° C. for 2 hrs and the absorbance was read at 620˜655 nm using a spectrophotometer. The signalling pathway that TLR7 activation leads to downstream NF-κB activation has been widely accepted, and therefore similar reporter assay was modified for evaluating TLR7 antagonist.

IC50: 15 nM
Compound: C[C@@H]1CN(c2ccc(Br)c3ncccc23)C[C@H](C(=O)NC2CNCC2F)O1 (stereo partly drawn) [Example 41, cis-(2R,6R)-4-(8-bromo-5-quinolyl)-N-[4-fluoropyrrolidin-3-yl]-6-methyl-morpholine-2-carboxamide]

From patent publication US20220363665A1, “QUINOLINE COMPOUNDS FOR THE TREATMENT OF AUTOIMMUNE DISEASE” (Hoffmann-La Roche Inc., priority 2019, published 2022)
